Measurements reported in US20220041641A1, “QUATERNARY AMMONIUM SALTS AS INHIBITORS OF TRIMETHYLAMINE PRODUCTION” (Senda Biosciences, Inc., priority 2018, published 2022).
“And” between values parts separate entries of the source, which are not always exact repeats. Equal values may be shown once. Where a name gives a salt, the structure may show the parent alone. Read-outs that look alike come from different tables or passages of the source.

Assays:
[1] = target: CutC from Proteus mirabilis (Proteus mirabilis, UniProt B4EYG1); assay: Cell-based assay for TMA production from a native producer (P. mirabilis)
CutC from Proteus mirabilis, sequence (B4EYG1 entry or part of it): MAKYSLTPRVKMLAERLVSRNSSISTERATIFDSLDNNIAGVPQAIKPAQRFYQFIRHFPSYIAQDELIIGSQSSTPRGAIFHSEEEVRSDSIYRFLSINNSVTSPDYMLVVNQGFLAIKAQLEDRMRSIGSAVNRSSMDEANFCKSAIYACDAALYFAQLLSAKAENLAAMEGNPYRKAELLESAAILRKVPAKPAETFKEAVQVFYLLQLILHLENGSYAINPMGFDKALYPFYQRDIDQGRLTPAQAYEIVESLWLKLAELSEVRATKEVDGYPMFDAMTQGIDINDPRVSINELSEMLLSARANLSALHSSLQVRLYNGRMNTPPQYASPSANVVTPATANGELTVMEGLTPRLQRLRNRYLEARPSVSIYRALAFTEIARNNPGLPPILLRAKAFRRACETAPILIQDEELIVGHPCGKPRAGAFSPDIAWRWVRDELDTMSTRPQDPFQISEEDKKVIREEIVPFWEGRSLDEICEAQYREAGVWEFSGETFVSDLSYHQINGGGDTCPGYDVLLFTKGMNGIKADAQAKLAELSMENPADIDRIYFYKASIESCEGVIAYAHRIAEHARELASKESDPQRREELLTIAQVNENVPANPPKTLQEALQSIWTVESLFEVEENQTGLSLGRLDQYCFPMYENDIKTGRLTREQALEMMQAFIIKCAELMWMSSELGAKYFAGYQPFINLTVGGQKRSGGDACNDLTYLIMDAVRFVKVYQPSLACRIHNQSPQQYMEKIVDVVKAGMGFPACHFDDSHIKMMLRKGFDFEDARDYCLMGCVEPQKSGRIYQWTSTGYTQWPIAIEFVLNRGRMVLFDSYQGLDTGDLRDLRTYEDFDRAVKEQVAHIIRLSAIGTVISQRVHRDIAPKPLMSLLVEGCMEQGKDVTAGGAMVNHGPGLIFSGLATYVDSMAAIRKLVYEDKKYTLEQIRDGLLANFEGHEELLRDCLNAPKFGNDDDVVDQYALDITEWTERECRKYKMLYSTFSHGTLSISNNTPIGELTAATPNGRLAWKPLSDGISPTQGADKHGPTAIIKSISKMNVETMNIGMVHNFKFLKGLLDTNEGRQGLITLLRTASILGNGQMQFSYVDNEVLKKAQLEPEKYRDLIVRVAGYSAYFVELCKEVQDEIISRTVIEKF
CutC from Proteus mirabilis, sequence (B4EYG0 entry or part of it, further chain): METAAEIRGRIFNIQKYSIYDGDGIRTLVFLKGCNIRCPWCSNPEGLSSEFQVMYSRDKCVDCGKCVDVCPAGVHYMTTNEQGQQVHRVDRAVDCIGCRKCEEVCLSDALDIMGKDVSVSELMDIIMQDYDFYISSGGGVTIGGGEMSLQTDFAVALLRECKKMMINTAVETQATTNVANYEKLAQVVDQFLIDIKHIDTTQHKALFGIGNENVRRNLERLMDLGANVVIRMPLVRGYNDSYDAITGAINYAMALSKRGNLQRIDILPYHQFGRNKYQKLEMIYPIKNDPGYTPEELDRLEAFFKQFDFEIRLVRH
Source text: (§1) In each bacterium, CutC was modified into its activated form by a cognate activating enzyme, CutD (protein EDU36696.1 for C. sporogenes; protein WP_004249185.1 for P. mirabilis). […] Trimethylamine may subsequently be converted by human enzymes such as flavin monooxygenase 3 to trimethylamine N-oxide, which might be associated with negative health consequences in humans.
(§2) A compound's ability to inhibit CutC from Proteus mirabilis and C. sporogenes from converting choline into trimethylamine was tested in cells as described. A BHI blood plate was inoculated with a frozen stock of Proteus mirabilis or Clostridium sporogenes under anaerobic conditions. A single colony was isolated from the plate and inoculated into 5 mL BHI supplemented with 1 mM choline under anaerobic conditions. The liquid cultures were grown overnight at 37° C.
(§3) To prepare each sample, 300 μL of the saturated culture was then inoculated into a 30 mL dilution blank under anaerobic conditions. 1 mM (trimethyl-d9)-choline and a sufficient amount of a compound to obtain a final concentration of 10 μM were added to the inoculated dilution blank. […] The mixture was incubated at 37° C. for 5 h. […] After centrifugation, the samples were analyzed by LCMS to determine the amount of d9-TMA produced.

[2] = target: CutC from Clostridium sporogenes (Clostridium sporogenes, UniProt A0AAE4Z0A8); assay: Cell-based assay for TMA production from a native producer (C. sporogenes); settings: read-out: IC50 Whole cell C. sporogenes; d9-TMA from 1 mM d9-choline, 5 h, 37° C.; run once; value 10 given when no fit or % TMA remaining at 10 μM higher than 15%
CutC from Clostridium sporogenes, sequence (A0ABD6RTF0 entry or part of it): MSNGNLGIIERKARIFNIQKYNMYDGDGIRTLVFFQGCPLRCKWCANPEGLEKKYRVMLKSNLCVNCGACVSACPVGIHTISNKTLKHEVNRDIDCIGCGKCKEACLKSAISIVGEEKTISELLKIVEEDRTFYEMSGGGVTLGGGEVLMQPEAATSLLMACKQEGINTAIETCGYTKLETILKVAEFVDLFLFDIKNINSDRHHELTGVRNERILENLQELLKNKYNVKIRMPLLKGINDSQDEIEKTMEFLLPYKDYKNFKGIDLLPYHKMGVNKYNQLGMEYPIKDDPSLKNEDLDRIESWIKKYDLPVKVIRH
CutC from Clostridium sporogenes, sequence (A0AAE4Z0A8 entry or part of it): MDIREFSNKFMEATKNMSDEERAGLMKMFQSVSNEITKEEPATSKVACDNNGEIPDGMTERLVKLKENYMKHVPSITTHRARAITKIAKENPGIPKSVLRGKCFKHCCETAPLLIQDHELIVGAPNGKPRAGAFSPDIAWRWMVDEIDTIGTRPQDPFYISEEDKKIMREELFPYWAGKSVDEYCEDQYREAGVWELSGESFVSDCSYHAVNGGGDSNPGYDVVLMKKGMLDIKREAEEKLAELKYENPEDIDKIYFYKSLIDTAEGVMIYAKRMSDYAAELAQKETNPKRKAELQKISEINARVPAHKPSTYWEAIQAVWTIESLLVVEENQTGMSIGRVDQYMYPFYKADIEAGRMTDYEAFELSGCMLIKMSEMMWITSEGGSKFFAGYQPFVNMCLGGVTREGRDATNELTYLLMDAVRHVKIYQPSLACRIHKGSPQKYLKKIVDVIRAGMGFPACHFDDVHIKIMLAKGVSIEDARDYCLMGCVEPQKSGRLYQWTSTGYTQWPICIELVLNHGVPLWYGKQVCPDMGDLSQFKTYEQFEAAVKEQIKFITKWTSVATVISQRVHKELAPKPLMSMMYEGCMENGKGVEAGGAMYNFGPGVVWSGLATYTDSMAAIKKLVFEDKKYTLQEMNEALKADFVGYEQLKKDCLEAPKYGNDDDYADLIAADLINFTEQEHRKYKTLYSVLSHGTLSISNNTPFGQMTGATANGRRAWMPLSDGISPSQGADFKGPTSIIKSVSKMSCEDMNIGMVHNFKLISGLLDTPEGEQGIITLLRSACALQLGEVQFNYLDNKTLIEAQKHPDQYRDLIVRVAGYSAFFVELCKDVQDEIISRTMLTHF
Source text: as §1, §2, §3

CutC/D enzyme = assay: Acute mouse model (plasma TMAO on choline diet); type: in vivo, male C57BL/6 mice; settings: Table 4b; for % change from vehicle control + choline diet: 10 mg/kg oral gavage days 1-3; for Mean plasma TMAO: 10 mg/kg oral gavage days 1-3, plasma 20 h after last gavage
Experimental: The following acute mouse model may be used to determine inhibition of the CutC/D enzyme and thus the inhibition of the formation of trimethylamine (TMA) from choline.
On day 1, male C57BL/6 mice were given a chemically defined diet (Tekland Global Rodent Diet 2018) containing 1.0% choline (g/g) for the duration of the experiment. Concurrently on day 1, mice were orally gavaged with 200 μL of compounds of interest (formulated in water). Mice were orally gavaged with the compounds and vehicle control again on day 2 and day 3 at a fixed time. Twenty hours after the last gavage, mice were sacrificed, and plasma was collected and prepared for detection of trimethylamine-N-oxide (TMAO) via liquid chromatography with on-line tandem mass spectrometry (LC-MS/MS). Food consumption and mouse weight were measured each day.
Plasma samples were prepared for LCMS as follows: An aliquot of 20 μL plasma sample was protein precipitated with 200 μL internal standard solution (100 ng/mL Labetalol & 100 ng/mL Tolbutamide & 100 ng/mL Diclofenac in acetonitrile, the mixture was vortex-mixed and centrifuged at 4000 rpm for 15 min, 4° C. An aliquot of 100 μL supernatant was transferred to the sample plate for LCMS injection. 1 μL of sample was injected onto an LC column for TMAO LCMS analysis.
Concentrations of TMAO were determined with a calibration curve ranging 0.05-100 μM for d9-TMAO in control plasma.

[3] = d9-TMA from 1 mM d9-choline, 5 h, 37° C.; value 10 given when no fit or % TMA remaining at 10 μM higher than 15%; read-out: Average IC50 Whole cell P. mirabilis

C#CC[N+]1(C)CCC[C@H]1CO (stereo partly drawn) [Compound 108, (2S)-2-(hydroxymethyl)-1-methyl-1-(prop-2-yn-1-yl)pyrrolidin-1-ium bromide]
IC50 [1, 3]: 2190 nM
IC50 [2]: 2460 nM

C[N+]1(C)CCCC1CO (centres unmarked) [Compound 110, 2-(hydroxymethyl)-1,1-dimethylpyrrolidin-1-ium Iodide]
IC50 [1, 3]: ≥ 10000 nM
IC50 [2]: ≥ 10000 nM

C#CC[N+]1(C)CC[C@H](O)C1 (stereo partly drawn) [Compound 112, (3S)-3-hydroxy-1-methyl-1-(prop-2-yn-1-yl)pyrrolidin-1-ium bromide]
IC50 [1, 3]: 550 nM
IC50 [2]: 280 nM

C#CC[N+]1(C)CC[C@@H](O)C1 (stereo partly drawn) [Compound 113, (3R)-3-hydroxy-1-methyl-1-(prop-2-yn-1-yl)pyrrolidin-1-ium bromide]
IC50 [1, 3]: 700 nM
IC50 [2]: 1250 nM

C[N+]1(CF)CC[C@H](O)C1 (stereo partly drawn) [Compound 114, (3S)-1-(fluoromethyl)-3-hydroxy-1-methylpyrrolidin-1-ium Iodide]
IC50 [1, 3]: 2080 nM
IC50 [2]: 1630 nM

C[N+]1(CF)CC[C@@H](O)C1 (stereo partly drawn) [Compound 115, (3R)-1-(fluoromethyl)-3-hydroxy-1-methylpyrrolidin-1-ium Iodide]
IC50 [1, 3]: 2070 nM
IC50 [2]: 9850 nM

C[N+]1(C)CC[C@@H](O)C1 [Compound 116, (R)-3-hydroxy-1,1-dimethylpyrrolidin-1-ium Iodide]
IC50 [1, 3]: ≥ 10000 nM
IC50 [2]: ≥ 10000 nM

C[N+]1(C)CC[C@H](O)C1 [Compound 117, (S)-3-hydroxy-1,1-dimethylpyrrolidin-1-ium Iodide]
IC50 [1, 3]: ≥ 10000 nM
IC50 [2]: ≥ 10000 nM

C[N+](C)(C)CCCC(=O)O [Compound 127, 3-carboxy-N,N,N-trimethylpropan-1-aminium Iodide]
IC50 [1, 3]: 5010 nM
IC50 [2]: ≥ 10000 nM

C[N+](C)(C)CCNC=O [Compound 128]
IC50 [1, 3]: ≥ 10000 nM
IC50 [2]: ≥ 10000 nM

C#CC[N@@+]1(C)CCC[C@@H]1CO [Compound 129, (1R,2R)-2-(hydroxymethyl)-1-methyl-1-(prop-2-yn-1-yl)pyrrolidin-1-ium Bromide]
IC50 [1, 3]: ≥ 10000 nM
IC50 [2]: ≥ 10000 nM

C#CCC[N+](C)(C)C [Compound 130]
IC50 [1, 3]: 3470 nM
IC50 [2]: ≥ 10000 nM

C[N+](C)(C)CC#CCO [Compound 132, 4-hydroxy-N,N,N-trimethylbut-2-yn-1-aminium Chloride]
IC50 [1, 3]: ≥ 10000 nM
IC50 [2]: ≥ 10000 nM

C#CC(C)[N+](C)(C)C (centres unmarked) [Compound 133]
IC50 [1, 3]: 660 nM
IC50 [2]: 440 nM

C[N+]1(C)CCCC1COCc1ccccc1 (centres unmarked) [Compound 134, 2-[(benzyloxy)methyl]-1,1-dimethylpyrrolidin-1-ium Iodide]
IC50 [1, 3]: ≥ 10000 nM
IC50 [2]: ≥ 10000 nM

C#CC1CC[N+](C)(C)C1 (centres unmarked) [Compound 137, 3-ethynyl-1,1-dimethylpyrrolidin-1-ium Iodide]
IC50 [1, 3]: ≥ 10000 nM
IC50 [2]: ≥ 10000 nM

C#CC[N+](C)(C)CCCO [Compound 138, N-(3-hydroxypropyl)-N,N-dimethylprop-2-yn-1-aminium Trifluoroacetate]
IC50 [1, 3]: 1050 nM
IC50 [2]: 5350 nM

C[S+]([O-])C[N+](C)(C)C (centres unmarked) [Compound 140, (methanesulfinylmethyl)trimethylazanium Chloride]
IC50 [1, 3]: ≥ 10000 nM
IC50 [2]: ≥ 10000 nM

C#CC[N+](C)(C)CCCCO.O=C([O-])C(F)(F)F [Compound 141, 4-hydroxy-N,N-dimethyl-N-(prop-2-yn-1-yl)butan-1-aminium Trifluoroacetate]
% change from vehicle control + choline diet (CutC/D enzyme): −88.23%
Mean plasma TMAO (CutC/D enzyme): 2.92 µM
IC50 [1, 3]: 5250 nM
IC50 [2]: ≥ 10000 nM

C[N+](C)(C)CCCP(=O)(O)O [Compound 143, N,N,N-trimethyl-3-phosphonopropan-1-aminium Trifluoroacetatetrifluoroacetatetrifluoroacetatetrifluoroacetatetrifluoroacetate]
IC50 ([1]; read-out: Average IC50 Whole cell P. mirabilis; d9-TMA from 1 mM d9-choline, 5 h, 37° C.; value 10 given when no fit or % TMA remaining at 10 μM higher than 15%): ≥ 10000 nM
IC50 [2]: ≥ 10000 nM

C#CC[N+](C)(C)CCCC(=O)O [Compound 144, N-(3-carboxypropyl)-N,N-dimethylprop-2-yn-1-aminium Iodide]
IC50 [1, 3]: 580 nM
IC50 [2]: 700 nM

C[N+](C)(CCO)c1ccccc1 [Compound 145]
IC50 [1, 3]: ≥ 10000 nM
IC50 [2]: 1380 nM

C[N+](C)(CF)CC(O)O [Compound 146]
IC50 [1, 3]: ≥ 10000 nM
IC50 [2]: 1500 nM

C#CC[N+](C)(C)CCCCC(=O)O [Compound A51, 4-carboxy-N,N-dimethyl-N-(prop-2-yn-1-yl)butan-1-aminium Bromide]
IC50 [1, 3]: 1100 nM
IC50 [2]: 930 nM

C#CC[N+](C)(C)CC(=C)C(=O)O.[Br-] [Compound B52, 2-carboxy-N,N-dimethyl-N-(prop-2-yn-1-yl)prop-2-en-1-aminium Bromide]
% change from vehicle control + choline diet (CutC/D enzyme): 20.76%
Mean plasma TMAO (CutC/D enzyme): 30.0 µM
IC50 [1, 3]: 40 nM and 30 nM
IC50 [2]: 10 nM

C#CCn1ccnc1 [Compound Z76, 1-(prop-2-yn-1-yl)-1H-imidazole]
IC50 [1, 3]: 4040 nM
IC50 [2]: ≥ 10000 nM
